Results on 90 compounds are retold here after a melting point compilation (Tetko et al.; mined from patent text by program, amines drawn as free bases though some values may be those of a salt).

For `CC(C#N)(COc1ccc(Cl)cc1)S(=O)(=O)Cc1ccc(Cl)cc1` (stereo not given), the melting point (in general, the temperature of the solid-liquid transition) lay in the range of 119 to 120 °C.
As for `CCCCCC(CC(=O)O)c1cc(C=O)c(OC)cc1OC` (stereo not given), the melting point fell in the range of 110 to 112 °C.
`CC(CC(=O)O)C(=O)c1ccc(-n2ccc(=O)cc2)cc1` (stereo not given) registered a melting point of 250 to 252 °C.
In turn, `CCCCNS(=O)(=O)c1cc(C(=O)CCl)ccc1Cl` came in with a melting point of 89 °C.
With `O=C(O)CCc1ccc(OCc2nc(-c3ccccc3)c(-c3ccccc3)o2)cc1` the figure was 124 to 127 °C; with `C#CCCN1CC=C(c2ccccc2)CC1`, 36.5 to 37.5 °C; with `CCc1nc2c(N)nc3cc(OCc4ccc(C(=O)OC)o4)ccc3c2s1`, 184 to 186 °C.
`CCc1cccc(CC)c1N(Cc1c[nH]nn1)C(=O)c1ccccc1` yielded a melting point of 112 to 115 °C.
On to `Cc1cc(-c2ccc(Cl)cc2)nc(-c2cccc(-c3ccc(S(N)(=O)=O)s3)c2)n1`, for which the melting point was found to be 227 °C.
`CN(NCc1ccccc1)c1cnn(-c2cccc(C(F)(F)F)c2)c(=O)c1` yielded a melting point of 89 to 90 °C.
Compound `ON=C1CCn2c(-c3ccc(Br)cc3)nc3c(Cl)ccc1c32` had a melting point of more than 250 °C.
With `Nc1ccc(C2=CCOCC2)c(F)c1`, the melting point lay within 86 to 88 °C.
As to `COC(=S)c1ccncc1Cc1ccc(OC)cc1`, the melting point lay in the range of 99 to 100 °C.
Compound `Nc1sc2c(c1C(=O)c1cccc3ccccc13)CCCC2` showed a melting point of 137 to 140 °C.
As to `CCCCCCNc1cccc2c1C(=O)c1cccc(NCCCCCC)c1C2=O`, the melting point lay in the range of 142 to 144 °C.
As for `CC(C)Cc1ccc(C(C)C(=O)Oc2ccc([N+](=O)[O-])cc2)cc1` (stereo not given), the melting point lay in the range of 156 to 162 °C.
Consider `O=C(OC1CCN(Cc2ccccc2)CC1)c1ccc([N+](=O)[O-])cc1`, for which the melting point is 87 to 89 °C.
In the case of `O=C1C(=O)N(Cc2ccc([N+](=O)[O-])cc2)CCN1Cc1ccc([N+](=O)[O-])cc1`, the melting point lay in the range of 257 to 260 °C.
With `Cc1c(C(=O)O)cnn1-c1nc(-c2ccc(Cl)c(Cl)c2)cs1`, the melting point lay within 278 to 279 °C.
For `COc1cc(C)c(-c2c(C)cncc2C)c(C)c1` the value was 87 to 88 °C; for `Fc1cc(F)cc(-c2cccc3[nH]c4c(c23)CCN(Cc2ccccc2)CC4)c1`, 172 to 175 °C; for `CC(CC(O)=S)(c1ccc(OCc2ccc3ccccc3n2)cc1)c1ccc(OCc2ccc3ccccc3n2)cc1`, 92 to 94 °C.
With `O=C(O)c1sc(-c2cccnc2)nc1C(F)(F)F` the figure was 209 °C; with `O=C(O)CC(Cc1c[nH]c2ccccc12)C(=O)O` (stereo not given), 144 to 145 °C; with `Cc1nccn1N=Cc1ccccc1`, 122 to 124 °C.
The compound `CC(Oc1ccc(Oc2cnc3cc(Cl)ccc3n2)cc1)C(=O)Nc1ccc(OC(F)(F)C(Cl)(Cl)Cl)cc1` (stereo not given) returned a melting point of 139 to 141 °C.
Take `Nc1ncc(-c2ccccc2)nc1Sc1ccccc1`: the melting point lay in the range of 109 to 112 °C.
In the case of `O=c1[nH]c2cc([N+](=O)[O-])cnc2n1-c1ccc2c(c1)OCO2`, the melting point was in the range of 224 to 225 °C.
Regarding `Cc1c(CNCC(C)(C)O)[nH]c2c(C)c(NC(=O)c3ccc(OC[C@@H]4CCCO4)cc3F)ccc12`, the melting point was in the range of 151 to 152 °C.
On to `COC(=O)c1cc2c(nc1C)C(COC(=O)Oc1ccc([N+](=O)[O-])cc1)CCCC2` (stereo not given), for which the melting point lay within 116 to 117 °C.
For `CC(=O)Nc1nnc(S(=O)(=O)Cc2ccccc2)o1`, the melting point fell in the range of 245 to 248 °C.
Compound `CC1(C)Oc2ccc(C(=O)CO)cc2[C@H](NC(=O)c2ccc(F)cc2)[C@H]1O` displayed a melting point of 216 °C.
For the compound `O=C1NCC2(CCN(Cc3ccccc3)CC2)O1`, the melting point lay within 159 to 161 °C.
For `COC(=O)[C@@]12CN(Cc3ccccc3)C[C@@H]1[C@@](O)(c1ccc(SC)cc1)CC[C@H]2c1ccccc1` (racemic) the value was 124 to 126 °C.
Consider `COc1cccc(C2(N(C)C)CCC(C(O)Cc3ccccc3)CC2)c1` (stereo not given), for which the melting point came to 72 °C.
Turning to `CCCCCN1N=C(c2ccc(OCC)c(OCC)c2)[C@@H]2CCCC[C@@H]2C1=O` (relative stereo), the melting point lay in the range of 98 to 99 °C.
For `O=c1[nH]c2ccc(C(F)(F)F)cc2c(-c2cc(Cl)ccc2O)c1CCO` the value was 253 to 255 °C; for `COC[C@@H]1[C@@H](c2ccc(Cl)c(Cl)c2)C[C@@H]2CC[C@H]1N2C`, 73 to 76 °C.
For `CN1CCCCC1COC(=O)Nc1cccc(Br)c1` (stereo not given), the melting point lay within 67.3 to 68.1 °C.
For `COCCN1CCN(c2ccc(C(=O)NC3(C(=O)NCC#N)CCCCC3)cc2)CC1` the value was 166 to 168 °C; for `CC1CCCCC1N(Cc1ccc(C(=O)NC(C)(C)C(=O)O)cc1)S(=O)(=O)c1ccc(C(F)(F)F)nc1` (stereo not given), 131 to 132 °C; for `Oc1cc(O)nc(-c2ccc(Cl)cc2)n1`, 333 °C.
Compound `O=C(O)C1CCCN(C(=O)c2cccc(C(=O)C3CCC4(CCNCC4)CC3)c2)C1` (stereo not given) yielded a melting point of 146 to 148 °C.
As to `O=C1CCc2c(Br)cccc2C1`, the melting point is 62 °C.
Compound `Cc1cc2c(c(C(C)(C)C)c1)OC(=O)C2O` (stereo not given) yielded a melting point of 152 to 160 °C.
In turn, `COC(=O)Cc1ccc(C2=CC(=O)c3ccccc3C2=O)n1C` had a melting point of 89 to 90 °C.
Turning to `COc1cc(N)c(Cl)cc1C(=O)NC1CCN(CCCC(=O)N2C(C)CCCC2C)CC1OC` (stereo not given), the melting point is 202 °C.
`CSc1ccc(CN2C(=O)C3(COc4cc5c(cc43)OCO5)c3ccccc32)cc1` (stereo not given): the melting point lay in the range of 128 to 130 °C.
With `COC(=O)c1cn(-c2ccc3ccccc3c2)cn1` the figure was 143 to 144 °C; with `CC(=O)c1ccc(NS(C)(=O)=O)c(Oc2ccccc2S(C)=O)c1` (stereo not given), 113 to 116 °C; with `Nc1sc2c(c1C(=O)c1ccc(Cl)s1)CCCC2`, 173 to 175 °C.
`CCCc1nc(NCCOC(N)=O)nc(N2CCOCC2)n1` displayed a melting point of 139 to 140 °C.
On to `CN1c2ccc(C(C)(C)C)cc2[C@H]2Cc3ccccc3[C@H]21` (relative stereo), for which the melting point turned out to be 74 °C.
`CN(C)C=NS(=O)(=O)c1cccc(Br)c1` yielded a melting point of 122 °C.
Consider `Nc1nc2ccc(S(=O)(=O)n3c(CCC(=O)O)cc4cc(Cl)ccc43)cc2o1`, for which the melting point lay in the range of 242 to 249 °C.
For `Fc1ccc(Cn2c(NC3CCN(CCNc4nc(-c5ccccc5)cs4)CC3)nc3ccccc32)cc1`, the melting point is 176 °C.
For `CSc1nc2ccc(Br)cc2c(=O)[nH]1` the value was 230 °C.
With `CCOC(=O)c1cn(NC=O)c2cc(Cl)c(F)cc2c1=O` the figure was 263 to 264 °C; with `O=C(c1cc2c([nH]c3ccccc32)s1)N1CCOCC1`, 92 to 95 °C.
For the compound `CCOC(=O)C=Cc1ccc([N+](=O)[O-])c(OC)c1`, the melting point lay within 119 to 120 °C.
With `Cn1cccc1C(=O)NCCCSc1ccncc1` the figure was 74 to 75 °C.
`Cc1sc(CCc2ccc(CO)cc2)nc1-c1ccccc1` yielded a melting point of 62 to 63 °C.
In the case of `O=C(O)c1ccc(OCCNC(=O)C2Cc3ccccc3N2S(=O)(=O)c2ccc(-c3cccc(C(F)(F)F)c3)cc2)cc1F` (stereo not given), the melting point was in the range of 97 to 105 °C.
For `CCOC(=O)COc1ccc(NC(=O)OC(C)(C)C)cc1C(F)(F)F` the value was 104 to 105 °C; for `CCOC(=O)c1cccc(-c2cc3c(O)ncnc3[nH]2)c1`, more than 250 °C.
For `NCCNc1ncc2ncnc(Nc3ccc(F)c(Cl)c3)c2n1`, the melting point lay within 173 to 175 °C.
Compound `COc1ccc(S(C)(=O)=O)cn1` had a melting point of 85 to 86.5 °C.
The compound `O=C1C2CCCC1CN(Cc1ccccc1)C2` returned a melting point of 48 to 50.5 °C.
For `COc1cc2c(cc1C#Cc1ccccc1)NC(=O)CC(c1cccc(C#N)c1)=N2` the value was more than 250 °C.
In turn, `Cc1ccc(C)c(C(=O)c2ccccc2)c1O` had a melting point of 111 to 114 °C.
Compound `CCCCCCCCCC(=O)Nc1ccc(S(=O)(=O)Nc2nnc(CC)s2)cc1` yielded a melting point of 121 to 122 °C.
The compound `CCCCc1nc(Cl)c(C(=O)OC)n1Cc1ccc2oc(-c3ccccc3-c3nnn[nH]3)c(Br)c2c1` returned a melting point of 110 to 112 °C.
On to `Cc1ccc(-c2c(NS(=O)(=O)c3ccc(C(C)(C)C)cc3)nc(NCCOC3CCCCO3)nc2OCCO)cc1` (stereo not given), for which the melting point lay within 113 to 116 °C.
Consider `CCOC(=NO)C(=O)C1=Nc2ccccc2C(=O)N(C)C1`, for which the melting point was in the range of 173 to 174 °C.
In turn, `COC(=O)C(Cl)C(Cl)c1ccccc1` (stereo not given) yielded a melting point of 164 to 165 °C.
The compound `COc1ccccc1N1CCN(CCn2c(=O)c3cscc3n(C)c2=O)CC1` yielded a melting point of 167 to 168 °C.
For `CCOc1ccc(S(=O)(=O)N2CCN(C)CC2)cc1C=O` the value was 107 to 108 °C.
Turning to `CCOC(=O)C1NCc2[nH]c3cccc(OCc4ccccc4)c3c2C1COC` (stereo not given), the melting point lay in the range of 170 to 171 °C.
With `Nc1ncnc2c1c(-c1ccc(Oc3ccccc3)cc1)nn2C1CCC2(CC1)OCCO2`, the melting point was 200 to 202 °C.
With `O=C1CCN(Cc2cnc(Nc3n[nH]c4ccc(-c5ncccc5Cl)cc34)s2)CC1`, the melting point lay within 187 to 188 °C.
As for `NS(=O)(=O)c1ccc(-c2cnn(C=C(F)C(F)F)c(=O)c2-c2ccc(F)cc2)cc1`, the melting point lay within 190 to 193 °C.
For `CC(C)n1nnc2c(NCc3ccccc3O)nc(N[C@H]3CC[C@H](N)CC3)nc21`, the melting point fell in the range of 120 to 123 °C.
In turn, `CC(C)C1COCc2nc3c(N)nc4cc(O)ccc4c3n21` (stereo not given) displayed a melting point of 210 to 215 °C.
As to `CCOC(=O)c1ncn2c1CN(C)C(=O)c1c(C#N)cccc1-2`, the melting point was 200 to 201 °C.
Take `CCCCc1ncc(CCN(C)C(Cc2ccccc2)C(=O)O)n1Cc1ccccc1Cl` (stereo not given): the melting point was in the range of 59 to 61 °C.
`COC(=O)c1cc2c(cnn2C)nc1C(=O)OC` yielded a melting point of 148 to 149 °C.
With `CCCOc1ccccc1N1CCN(CCCCn2c(=O)[nH]c(=O)c3ccccc32)CC1` the figure was 68 °C; with `COC(CNc1nc(-c2ccccc2)c2cc(Cl)ccc2n1)OC`, 122 to 123 °C; with `COCC1(C)CCCOc2cc(/C=C/c3ccc(C(=O)O)cc3)ccc21` (stereo not given), 194 to 196 °C.
`OCc1cn(-c2ccc(SC(F)(F)F)cc2)cn1` showed a melting point of 145 to 147 °C.
